{"source": "PubChem BioAssay AID2060617", "about": "(Molecular Pharmacology Branch, DTP, NCI, 2025);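 also: spheroids exposed to compounds for seven days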;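 as to viability, T/C: 100% = DMSO vehicle control wells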", "system": "485368-065-R4-J2-PDC spheroids with HUVEC/MSC, viability", "assay": "Anticancer human tumor 485368-065-R4-J2-PDC patient-derived pancreatic carcinoma cell line growth inhibition [CLK]", "settings": "for IC50: curve of first compound; for viability, T/C: stronger effect = lower value", "in_short": "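Multi-cell-type spheroids combined patient-derived tumor cells with HUVEC endothelial cells and human mesenchymal stem cells. Paired agents were dosed in half-log steps down from about clinical Cmax, or from 10 microM where Cmax was unknown.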", "data": [{"smiles": "NC(=O)C(=Cn1cnc(-c2cc(C(F)(F)F)cc(C(F)(F)F)c2)n1)c1cncnc1", "note": "+ CNC(=O)c1ccc(Nc2nc(OC3CCCC3)c3c(-c4ccc5nc(C)oc5c4)c[nH]c3n2)c(OC)c1", "values": [{"measurement": "IC50", "setting": "second compound 0.0316 µM", "value": "> 3", "unit": "µM"}, {"measurement": "IC50", "setting": "second compound 0.1 µM", "value": "> 3", "unit": "µM"}, {"measurement": "IC50", "setting": "second compound 0.316 µM", "value": "> 3", "unit": "µM"}, {"measurement": "IC50", "setting": "second compound 1 µM", "value": "> 3", "unit": "µM"}, {"measurement": "IC50", "setting": "second compound 3.16 µM", "value": "> 3", "unit": "µM"}, {"measurement": "IC50", "setting": "second compound 10 µM", "value": 2.59, "unit": "µM"}, {"measurement": "viability, T/C", "setting": "second compound 0.0316 µM, first compound 0.00949 µM", "value": 95, "unit": "%"}, {"measurement": "viability, T/C", "setting": "second compound 0.0316 µM, first compound 0.03 µM", "value": 130, "unit": "%"}, {"measurement": "viability, T/C", "setting": "second compound 0.0316 µM, first compound 0.0949 µM", "value": 179, "unit": "%"}, {"measurement": "viability, T/C", "setting": "second compound 0.0316 µM, first compound 0.3 µM", "value": 195, "unit": "%"}, {"measurement": "viability, T/C", "setting": "second compound 0.0316 µM, first compound 0.949 µM", "value": 176, "unit": "%"}, {"measurement": "viability, T/C", "setting": "second compound 0.0316 µM, first compound 3 µM", "value": 128, "unit": "%"}, {"measurement": "viability, T/C", "setting": "second compound 0.1 µM, first compound 0.00949 µM", "value": 96.4, "unit": "%"}, {"measurement": "viability, T/C", "setting": "second compound 0.1 µM, first compound 0.03 µM", "value": 108, "unit": "%"}, {"measurement": "viability, T/C", "setting": "second compound 0.1 µM, first compound 0.0949 µM", "value": 173, "unit": "%"}, {"measurement": "viability, T/C", "setting": "second compound 0.1 µM, first compound 0.3 µM", "value": 177, "unit": "%"}, {"measurement": "viability, T/C", "setting": "second compound 0.1 µM, first compound 0.949 µM", "value": 171, "unit": "%"}, {"measurement": "viability, T/C", "setting": "second compound 0.1 µM, first compound 3 µM", "value": 97.5, "unit": "%"}, {"measurement": "viability, T/C", "setting": "second compound 0.316 µM, first compound 0.00949 µM", "value": 98.1, "unit": "%"}, {"measurement": "viability, T/C", "setting": "second compound 0.316 µM, first compound 0.03 µM", "value": 116, "unit": "%"}, {"measurement": "viability, T/C", "setting": "second compound 0.316 µM, first compound 0.0949 µM", "value": 160, "unit": "%"}, {"measurement": "viability, T/C", "setting": "second compound 0.316 µM, first compound 0.3 µM", "value": 154, "unit": "%"}, {"measurement": "viability, T/C", "setting": "second compound 0.316 µM, first compound 0.949 µM", "value": 139, "unit": "%"}, {"measurement": "viability, T/C", "setting": "second compound 0.316 µM, first compound 3 µM", "value": 74.3, "unit": "%"}, {"measurement": "viability, T/C", "setting": "second compound 1 µM, first compound 0.00949 µM", "value": 82.2, "unit": "%"}, {"measurement": "viability, T/C", "setting": "second compound 1 µM, first compound 0.03 µM", "value": 114, "unit": "%"}, {"measurement": "viability, T/C", "setting": "second compound 1 µM, first compound 0.0949 µM", "value": 141, "unit": "%"}, {"measurement": "viability, T/C", "setting": "second compound 1 µM, first compound 0.3 µM", "value": 132, "unit": "%"}, {"measurement": "viability, T/C", "setting": "second compound 1 µM, first compound 0.949 µM", "value": 99.4, "unit": "%"}, {"measurement": "viability, T/C", "setting": "second compound 1 µM, first compound 3 µM", "value": 62.5, "unit": "%"}, {"measurement": "viability, T/C", "setting": "second compound 3.16 µM, first compound 0.00949 µM", "value": 80.3, "unit": "%"}, {"measurement": "viability, T/C", "setting": "second compound 3.16 µM, first compound 0.03 µM", "value": 114, "unit": "%"}, {"measurement": "viability, T/C", "setting": "second compound 3.16 µM, first compound 0.0949 µM", "value": 123, "unit": "%"}, {"measurement": "viability, T/C", "setting": "second compound 3.16 µM, first compound 0.3 µM", "value": 113, "unit": "%"}, {"measurement": "viability, T/C", "setting": "second compound 3.16 µM, first compound 0.949 µM", "value": 87.6, "unit": "%"}, {"measurement": "viability, T/C", "setting": "second compound 3.16 µM, first compound 3 µM", "value": 59.3, "unit": "%"}, {"measurement": "viability, T/C", "setting": "second compound 10 µM, first compound 0.00949 µM", "value": 69.4, "unit": "%"}, {"measurement": "viability, T/C", "setting": "second compound 10 µM, first compound 0.03 µM", "value": 98.3, "unit": "%"}, {"measurement": "viability, T/C", "setting": "second compound 10 µM, first compound 0.0949 µM", "value": 124, "unit": "%"}, {"measurement": "viability, T/C", "setting": "second compound 10 µM, first compound 0.3 µM", "value": 98.5, "unit": "%"}, {"measurement": "viability, T/C", "setting": "second compound 10 µM, first compound 0.949 µM", "value": 80.8, "unit": "%"}, {"measurement": "viability, T/C", "setting": "second compound 10 µM, first compound 3 µM", "value": 45.4, "unit": "%"}]}, {"smiles": "Nc1ccccc1NC(=O)c1ccc(CNC(=O)OCc2cccnc2)cc1", "note": "+ CNC(=O)c1ccc(Nc2nc(OC3CCCC3)c3c(-c4ccc5nc(C)oc5c4)c[nH]c3n2)c(OC)c1", "values": [{"measurement": "IC50", "setting": "second compound 0.0316 µM", "value": 6.71, "unit": "µM"}, {"measurement": "IC50", "setting": "second compound 0.1 µM", "value": 6.55, "unit": "µM"}, {"measurement": "IC50", "setting": "second compound 0.316 µM", "value": 6.73, "unit": "µM"}, {"measurement": "IC50", "setting": "second compound 1 µM", "value": 5.72, "unit": "µM"}, {"measurement": "IC50", "setting": "second compound 3.16 µM", "value": 5.1, "unit": "µM"}, {"measurement": "IC50", "setting": "second compound 10 µM", "value": 5.51, "unit": "µM"}, {"measurement": "viability, T/C", "setting": "second compound 0.0316 µM, first compound 0.0316 µM", "value": 89.6, "unit": "%"}, {"measurement": "viability, T/C", "setting": "second compound 0.0316 µM, first compound 0.1 µM", "value": 96.7, "unit": "%"}, {"measurement": "viability, T/C", "setting": "second compound 0.0316 µM, first compound 0.316 µM", "value": 94.7, "unit": "%"}, {"measurement": "viability, T/C", "setting": "second compound 0.0316 µM, first compound 1 µM", "value": 90.3, "unit": "%"}, {"measurement": "viability, T/C", "setting": "second compound 0.0316 µM, first compound 3.16 µM", "value": 82.8, "unit": "%"}, {"measurement": "viability, T/C", "setting": "second compound 0.0316 µM, first compound 10 µM", "value": 32.4, "unit": "%"}, {"measurement": "viability, T/C", "setting": "second compound 0.1 µM, first compound 0.0316 µM", "value": 92.1, "unit": "%"}, {"measurement": "viability, T/C", "setting": "second compound 0.1 µM, first compound 0.1 µM", "value": 93.8, "unit": "%"}, {"measurement": "viability, T/C", "setting": "second compound 0.1 µM, first compound 0.316 µM", "value": 102, "unit": "%"}, {"measurement": "viability, T/C", "setting": "second compound 0.1 µM, first compound 1 µM", "value": 87.3, "unit": "%"}, {"measurement": "viability, T/C", "setting": "second compound 0.1 µM, first compound 3.16 µM", "value": 81.7, "unit": "%"}, {"measurement": "viability, T/C", "setting": "second compound 0.1 µM, first compound 10 µM", "value": 31.9, "unit": "%"}, {"measurement": "viability, T/C", "setting": "second compound 0.316 µM, first compound 0.0316 µM", "value": 74.4, "unit": "%"}, {"measurement": "viability, T/C", "setting": "second compound 0.316 µM, first compound 0.1 µM", "value": 79.8, "unit": "%"}, {"measurement": "viability, T/C", "setting": "second compound 0.316 µM, first compound 0.316 µM", "value": 83.9, "unit": "%"}, {"measurement": "viability, T/C", "setting": "second compound 0.316 µM, first compound 1 µM", "value": 89.7, "unit": "%"}, {"measurement": "viability, T/C", "setting": "second compound 0.316 µM, first compound 3.16 µM", "value": 83.2, "unit": "%"}, {"measurement": "viability, T/C", "setting": "second compound 0.316 µM, first compound 10 µM", "value": 33.1, "unit": "%"}, {"measurement": "viability, T/C", "setting": "second compound 1 µM, first compound 0.0316 µM", "value": 86, "unit": "%"}, {"measurement": "viability, T/C", "setting": "second compound 1 µM, first compound 0.1 µM", "value": 80.8, "unit": "%"}, {"measurement": "viability, T/C", "setting": "second compound 1 µM, first compound 0.316 µM", "value": 71.3, "unit": "%"}, {"measurement": "viability, T/C", "setting": "second compound 1 µM, first compound 1 µM", "value": 77.9, "unit": "%"}, {"measurement": "viability, T/C", "setting": "second compound 1 µM, first compound 3.16 µM", "value": 70.6, "unit": "%"}, {"measurement": "viability, T/C", "setting": "second compound 1 µM, first compound 10 µM", "value": 30.6, "unit": "%"}, {"measurement": "viability, T/C", "setting": "second compound 3.16 µM, first compound 0.0316 µM", "value": 71.5, "unit": "%"}, {"measurement": "viability, T/C", "setting": "second compound 3.16 µM, first compound 0.1 µM", "value": 74.8, "unit": "%"}, {"measurement": "viability, T/C", "setting": "second compound 3.16 µM, first compound 0.316 µM", "value": 72.2, "unit": "%"}, {"measurement": "viability, T/C", "setting": "second compound 3.16 µM, first compound 1 µM", "value": 65.9, "unit": "%"}, {"measurement": "viability, T/C", "setting": "second compound 3.16 µM, first compound 3.16 µM", "value": 65.6, "unit": "%"}, {"measurement": "viability, T/C", "setting": "second compound 3.16 µM, first compound 10 µM", "value": 29.3, "unit": "%"}, {"measurement": "viability, T/C", "setting": "second compound 10 µM, first compound 0.0316 µM", "value": 67.6, "unit": "%"}, {"measurement": "viability, T/C", "setting": "second compound 10 µM, first compound 0.1 µM", "value": 73.9, "unit": "%"}, {"measurement": "viability, T/C", "setting": "second compound 10 µM, first compound 0.316 µM", "value": 67.8, "unit": "%"}, {"measurement": "viability, T/C", "setting": "second compound 10 µM, first compound 1 µM", "value": 73.6, "unit": "%"}, {"measurement": "viability, T/C", "setting": "second compound 10 µM, first compound 3.16 µM", "value": 69.8, "unit": "%"}, {"measurement": "viability, T/C", "setting": "second compound 10 µM, first compound 10 µM", "value": 28.6, "unit": "%"}]}]}
